# Measurements published in US5580956A, “Phospholipase C-inhibiting peptides” (priority 1992, dated 1996).
# Numbered stars: 1 amine (or outer) side, 2 acyl side, 3 side chain; on linkers, the order of the positions; unused ones are H or OH. Peptide text beside a SMILES is read from it. * marks the point of attachment. Cyclopentanecarbonyl = O=C(C1CCCC1)*; Butanoyl(2-Et) = CCC(CC)C(=O)*; Suc = O=C(CCC(=O)[*:2])[*:1]; Hexanoyl = CCCCCC(=O)*
# Assays:
# PLC-γ1 = target: T1, PLC-γ1 (Bos taurus, UniProt P08487); assay: PLC-inhibiting activity (release of [3H]inositol phosphate from [3H]PIP2); type: biochemical, bovine; settings: PI-PLC-γ1, 37° C., 10 minutes, read-out: Inhibition rate (%); for inhibition at 130 µM (stock): Concentration 130 μM (aqueous solution of test peptide)
# T1 construct: A sample (PLC-γ1) was prepared from bovine thymus according to the method of Y. Homma et al; from tissue; host or cells: bovine thymus
# T1 sequence (P08487 1-1291): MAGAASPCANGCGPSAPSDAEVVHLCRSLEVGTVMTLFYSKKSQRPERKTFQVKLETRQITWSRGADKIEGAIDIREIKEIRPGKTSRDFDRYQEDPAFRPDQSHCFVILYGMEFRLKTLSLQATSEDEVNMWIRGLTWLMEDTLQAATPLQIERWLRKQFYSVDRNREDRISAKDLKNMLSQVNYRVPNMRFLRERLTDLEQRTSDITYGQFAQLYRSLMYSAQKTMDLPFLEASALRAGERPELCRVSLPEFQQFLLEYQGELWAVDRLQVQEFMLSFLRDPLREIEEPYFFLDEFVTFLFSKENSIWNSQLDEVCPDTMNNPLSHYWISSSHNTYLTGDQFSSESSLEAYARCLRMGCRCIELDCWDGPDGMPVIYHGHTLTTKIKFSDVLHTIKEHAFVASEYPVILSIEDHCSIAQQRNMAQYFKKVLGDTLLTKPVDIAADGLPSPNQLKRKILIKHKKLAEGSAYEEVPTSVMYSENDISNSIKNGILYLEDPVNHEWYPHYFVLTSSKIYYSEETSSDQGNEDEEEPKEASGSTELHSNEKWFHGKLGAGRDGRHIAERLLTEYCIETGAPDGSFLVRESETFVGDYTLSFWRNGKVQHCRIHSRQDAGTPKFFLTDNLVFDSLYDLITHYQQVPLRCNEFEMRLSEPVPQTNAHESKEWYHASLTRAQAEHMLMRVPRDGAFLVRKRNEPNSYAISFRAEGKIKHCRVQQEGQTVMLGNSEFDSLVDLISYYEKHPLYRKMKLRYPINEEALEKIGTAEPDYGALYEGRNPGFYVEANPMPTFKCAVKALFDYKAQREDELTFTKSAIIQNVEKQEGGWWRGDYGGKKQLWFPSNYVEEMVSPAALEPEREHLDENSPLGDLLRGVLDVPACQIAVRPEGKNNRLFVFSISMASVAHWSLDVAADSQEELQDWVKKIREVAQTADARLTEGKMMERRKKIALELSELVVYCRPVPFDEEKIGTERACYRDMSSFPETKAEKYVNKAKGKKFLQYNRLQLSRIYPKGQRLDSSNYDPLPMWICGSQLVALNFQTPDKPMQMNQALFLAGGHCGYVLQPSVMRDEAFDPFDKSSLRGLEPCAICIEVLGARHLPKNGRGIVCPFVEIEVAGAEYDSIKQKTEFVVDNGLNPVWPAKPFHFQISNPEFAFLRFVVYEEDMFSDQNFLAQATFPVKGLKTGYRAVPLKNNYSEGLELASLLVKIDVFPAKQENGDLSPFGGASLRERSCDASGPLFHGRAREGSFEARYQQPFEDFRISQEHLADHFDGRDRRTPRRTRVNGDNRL
# Method: A sample (PLC-γ1) was prepared from bovine thymus according to the method of Y. Homma et al. described in Biochemical Journal [(Biochem. J.), 269, 13 (1990)]. A solution having the composition listed in Table 1 below was prepared in advance on the ice and the reaction was begun with heating to 37° C. After incubation for 10 minutes, 2 ml of a solution mixture of chloroform/methanol (2:[…]) was added thereto to stop the reaction. The resulting inositol phosphate was extracted with 0.5 ml of 1N hydrochloric acid. Two-phase distribution was carried out by centrifugation (2000×g, 3 minutes), and the amount of ^3 H contained in 0.7 ml of the supernatant was measured with scintillation counter. […] The obtained value of specific radioactivity was defined as "A", the value of specific radioactivity obtained when an equivalent amount of water was added instead of the aqueous solution of the test peptide was defined as "B", the value of specific radioactivity obtained when an equivalent amount of water was added instead of the sample and the aqueous solution of the test peptide was defined as "C", and the inhibition rate (X) was determined according to the following equation. X(%)=[…]
# KMS-4 cells = assay: Cell proliferation-inhibiting activity (BrdU incorporation, Amersham Cell Proliferation Detection Kit); type: cell-based; settings: Concentration 31 μM, 17 hours with peptide, BrdU-stained cells
# Method: The following procedure was carried out with an Amersham Cell Proliferation Detection Kit. First, cells [KMS-4; M. Nanba et al., International Journal of Cancer, 32, 697 (1983)] were suspended in a DMEM culture medium (product of Nissui Seiyaku) containing 10% fetal calf serum to a concentration of 1-2×10^4 cells/ml, and 1 ml of the above-mentioned cell suspension was put into each well of a 24-well plate (product of Corning Co.). The cells were cultured for 2 days in a CO2 incubator (37° C., 5% CO2). Next, the culture medium was exchanged with a DMEM medium containing 10% fetal calf serum, and then the test peptide was added thereto and culturing was carried out for 17 hours. The culture medium was again exchanged with a serum-free DMEM medium, 0.5 ml of a solution of the reagents labelled 5-bromo-2'-deoxyuridine (BrdU) and 5-fluoro-2'-deoxyuridine (FdU) [10:1] diluted 1000-fold with the same medium was added to each well, and cultured for 2 hours. The culture medium was removed, and the cells were immobilized with an acetic acid/ethanol solution. The immobilized cells were stained according to the method for the Amersham Cell Proliferation Kit, and then further stained with a 1% Giemsa solution (product of Merck Co.). The number of cells incorporating BrdU and the total cell count within 1 field of vision of the microscope (approximately 200 cells) were determined, and the proportion (%) of stained cells per field of vision was calculated. Furthermore, the same procedure was repeated 10 times, and the average value thereof was defined as the cell proliferation activity (%). The cell proliferation-inhibiting activity was calculated in the following manner. The proliferation activity without addition of peptide was defined as "A", the proliferation activity with addition of the test peptide was defined as "B", and the cell proliferation inhibition rate (X) was determined according to the following equation. X (%)=[…]
# [1] = system: Proteus vulgaris ATCC6897; type: cell-based; settings: ATCC6897, pH 7
# Method: (§1) The antibacterial activity was determined by the agar dilution method using a culture medium (pH 7.0) containing 3 g/l bactotrypton (product of Difco Co.), 1 g/l meat extract, 1 g/l glucose and 16 g/l agar.
# [2] = system: Pseudomonas aeruginosa Bin H No. 1; type: cell-based; settings: Bin H No. 1, pH 7
# Method: as §1
# Shigella sonnei ATCC9290 = assay: Antibacterial activity, agar dilution method; type: cell-based; settings: medium pH 7.0
# Method: as §1
# [3] = system: Salmonella typhi ATCC9902; type: cell-based; settings: agar dilution, medium pH 7.0
# Method: as §1
# [4] = system: Enterococcus faecium ATCC10541; type: cell-based; settings: ATCC10541, pH 7
# Method: as §1
# [5] = system: Bacillus subtilis No. 10107; type: cell-based; settings: No. 10107, pH 7
# Method: as §1
Compound,inhibition at 630 µM (stock) (PLC-γ1; Concentration 630 μM (aqueous solution of test peptide)),Cell proliferation inhibition rate (%) (KMS-4 cells),MIC [1],MIC [2],inhibition at 130 µM (stock) (PLC-γ1),MIC (Shigella sonnei ATCC9290),MIC [3],MIC [4],MIC [5],inhibition at 160 µM (stock) (PLC-γ1; Concentration 160 μM (aqueous solution of test peptide))
"CCC(CC)C(=O)N[C@@H](CC(C)C)C(=O)N[C@@H](Cc1ccc(O)cc1)C(=O)N[C@@H](CCCNC(=N)N)C(=O)N[C@@H](CCCCN)C(=O)N[C@@H](CCSC)C(=O)N[C@@H](CCCNC(=N)N)C(=O)N[C@@H](CC(C)C)C(=O)N[C@@H](CCCNC(=N)N)C(=O)N[C@@H](Cc1ccc(O)cc1)C(=O)N1CCC[C@H]1C(=O)N[C@H](C(N)=O)C(C)C [(I-20), (CH3 CH2)2 CHCO-Leu-Tyr-Arg-Lys-Met-Arg-Leu-Arg-Tyr-Pro-Val-NH2] ({Butanoyl(2-Et)}-LYRKMRLRYPV-NH2)",74%,44%,83 µg/mL,83 µg/mL,–,–,–,–,–,–
"CSCC[C@H](NC(=O)[C@H](CCCCN)NC(=O)[C@H](CCCNC(=N)N)NC(=O)[C@H](Cc1ccc(O)cc1)NC(=O)[C@H](CC(C)C)NC(=O)CCC(=O)O)C(=O)N[C@@H](CCCNC(=N)N)C(=O)N[C@@H](CC(C)C)C(=O)N[C@@H](CCCNC(=N)N)C(=O)N[C@@H](Cc1ccc(O)cc1)C(=O)N1CCC[C@H]1C(=O)N[C@H](C(N)=O)C(C)C [(I-22), HOO (CH2)2 CO-Leu-Tyr-Arg-Lys-Met-Arg-Leu-Arg-Tyr-Pro-Val-NH2] (Suc-LYRKMRLRYPV-NH2)",–,84%,83 µg/mL,42 µg/mL,36%,–,–,–,–,–
"CSCC[C@H](NC(=O)[C@H](CCCCN)NC(=O)[C@H](CCCNC(=N)N)NC(=O)[C@H](Cc1ccc(O)cc1)NC(=O)[C@H](CC(C)C)NC(=O)C1CCCC1)C(=O)N[C@@H](CCCNC(=N)N)C(=O)N[C@@H](CC(C)C)C(=O)N[C@@H](CCCNC(=N)N)C(=O)N[C@@H](Cc1ccc(O)cc1)C(=O)N1CCC[C@H]1C(=O)N[C@H](C(N)=O)C(C)C [(I-26), C5 H9 CO-Leu-Tyr-Arg-Lys-Met-Arg-Leu-Arg-Tyr-pro-Val-NH2] (Cyclopentanecarbonyl-LYRKMRLRYPV-NH2)",–,71%,83 µg/mL,42 µg/mL,23%,–,–,–,–,–
"CCCCCC(=O)N[C@@H](CC(C)C)C(=O)N[C@@H](Cc1ccc(O)cc1)C(=O)N[C@@H](CCCNC(=N)N)C(=O)N[C@@H](CCCCN)C(=O)N[C@@H](CCSC)C(=O)N[C@@H](CCCNC(=N)N)C(=O)N[C@@H](CC(C)C)C(=O)N[C@@H](CCCNC(=N)N)C(=O)N[C@@H](Cc1ccc(O)cc1)C(=O)N1CCC[C@H]1C(=O)N[C@H](C(N)=O)C(C)C [(I-27), CH3 (CH2)4 CO-Leu-Tyr-Arg-Lys-Met-Arg-Leu-Arg-Tyr-Pro-Val-NH2] (Hexanoyl-LYRKMRLRYPV-NH2)",–,28%,83 µg/mL,42 µg/mL,35%,83 µg/mL,83 µg/mL,83 µg/mL,83 µg/mL,–
"Ac-YRKMRLRY-NH2 [Compound (I-10), CH3 CO-Tyr-Arg-Lys-Met -Arg-Leu-Arg-Tyr-NH2]",–,–,83 µg/mL,83 µg/mL,–,–,–,83 µg/mL,83 µg/mL,26%
